Results on one compound are retold here after US20260215425A1, “NITRIFICATION INHIBITORS” (The University of Melbourne, priority 2022, published 2026).

The test system of one data set is N. multiformis. The data set can be described thus: standard nitrification inhibition assay (NO2- production, Griess). It is filed as cell-based, Nitrosospira multiformis. The following applies: [NH4+]=3 mM, [inhibitor]=0.3 mM (10 mol %), pH 7.5, 30° C., 60 min. On the procedure: Cells of N. multiformis and N. europaea were cultivated to the mid-exponential growth phase (OD600=0.1, [NO2^−] approximately 800 μM) and harvested by filtration onto 0.2 μm membrane filters (Mixed Cellulose Ester (MCE), Sigma Aldrich). The cells were washed with 2×100 mL of 0.1 M sodium phosphate buffer (NaPB), containing 0.2 mM MgSO4 at pH 7.5. The cells were washed from the filter paper by transferring it to a sterile 50 mL tube and resuspending in NaPB (15 mL), followed by 5 s of vortexing (Ratek, Australia) and 3 s of sonication (Vevor, Australia). […] Experiments were performed in triplicate.
In a deep 96-well plate (2 mL capacity), 980 μL of the bacterial inoculum (OD600=0.03) was added to the inhibitor (10 μL, 30 mmol L^−1 in Milli-Q water), the solutions were mixed thoroughly and pre-incubated in the dark for 5 minutes at 100 rpm and 30° C. (NH4)2SO4 (10 μL, 150 mM, from a prepared sterile solution containing 19.8 g L^−1 (NH4)2SO4 in Milli-Q water) was then added using a multi-channel pipette. The plate was covered with a with an O2 permeable membrane to ensure aeration (Breathe-Easy® sealing membrane, Sigma Aldrich) and incubated in a temperature-regulated rotary incubator (Ratek, Australia) in the dark for 60 minutes at 30° C. and 100 rpm. An aliquot of the reaction solution ([…]) was transferred to a 96-well spectrophotometric plate to which 50 µL of Griess reagent was added. The colour was allowed to develop for 15 minutes at room temperature, and the absorbance was measured at 540 nm. Each assay was accompanied by control treatments to determine the 0% and 100% NO2 signal. The percentage inhibition was calculated according to eqn. 1 from the NO2 production of the cells in NaPB (i) without additive (‘untreated cells’: 0% signal), (ii) with [NH4^+]=3 mM (‘uninhibited’ cells: 100% signal) and (iii) with [NH4^+]=3 mM and [inhibitor]=0.3 mM and 0.03 mM (10 mol % and 1 mol % of [NH4^+], ‘inhibited cells’). Experiments were performed in triplicate.
On the technique in general: The Griess reaction detects nitrite, a stable product of nitric oxide.

Data set [1] deals with hydroxylamine oxireductase (HOA). In words: standard nitrification inhibition assay with NH2OH as substrate. The class given is cell-based, N. multiformis. The following applies: substrate NH2OH 3 mM, [inhibitor]=0.3 mM, pH 7.5, 30° C., 60 min.
Data set [2] deals with N. europaea. The data set can be described thus: mode of inhibition, Michaelis-Menten kinetics of NO2- production. The following applies: for Km: read-out: Km(app). It is filed as cell-based. The protocol:
These studies were performed using a modified procedure of that described earlier. In FIG. 4a, the rate of NO2^− production was measured as a function of [NH4^+] to determine whether the inhibitor follows Michaelis-Menten kinetics. The [NH4^+] was 0.003 mM, 0.03 mM, 0.5 mM, 1.5 mM, 3 mM, 10 mM, 15 mM and 30 mM. [4-MPT] remained constant at 0.3 mM. The Michaelis-Menten plots show saturation kinetics, where the NO2 production became independent of [NH4^+] beyond 0.5 mmol L^−1.
Mode of inhibition studies with remaining inhibitors N001, N003, N014 and N018 were conducted as a proof of concept.

The test system of data set [3] is N. europaea. The data set can be described thus: acute toxicity test (LIVE/DEAD stain). The class given is cell-based. The following applies: [4-MPT]=1.5 mM (50 mol % of [NH4+]), [NH4+]=3 mM, 12 h. The protocol: Cells were harvested using the ‘standard cell harvesting protocol’. The bacteria solution was adjusted to an OD600=0.8 (100 μg/L protein). The solution was divided into 1 mL aliquots and transferred to a 24-well tissue culture plate (Greiner Cellstar®, polystyrene Tissue Culture treated). Each well contained 980 μL of bacterial solution, 10 μL of a 150 mM aqueous (NH4)2SO4 solution and 10 μL of a 150 mM inhibitor solution. […] After incubation, cells were transferred into a centrifuge tube and sedimented at 10,000 rpm for 10 minutes. The supernatant was discarded, and cells were re-suspended in 1 mL NaPB. A 5 μL aliquot was transferred into a 96-well plate and the bacterial stain (LIVE/DEAD™ BacLight™ Bacterial Viability Kit for microscopy, ThermoFisher Scientific) was added following the manufacturer's guideline. 10 μL of the solution was transferred onto a microscopic slide (Fisher Scientific, Australia, microscope slides 7.6 cm×2.5 cm (L×W), thickness 1-1.2 mm). Ten images were taken per treatment with a fluorescence microscope (Leica DM6000, Germany) using the red filter setting (excitation:
575/30 nm (dichromatic) DC: 600; emission: 635/40 nm) and green channel using filter setting (excitation: 500/20 nm DC: 515; emission: 535/30 nm) to detect dead and live cells respectively. The percentage of live and dead cells was calculated via eqns.

[4] abbreviates: inhibitor concentration 37.5 μM.
Where [5] appears, read: inhibitor concentration 75.0 μM.

Where two headings read alike, the source gives them in different places.

Consider `C#CCn1cc(C)nn1` [Compound 4-MPT, 4-Methyl-1-(prop-2-yn-1yl)-1H-1,2,3-triazole], for which the “% Inhibition NM” value with N. multiformis is listed as 75%. For the same compound, the “% Inhibition NM” value in data set [1] is recorded as 33 ± 4%. In the data set with N. europaea [2] (NO2- production against [NH4+]), the mode of inhibition entry is “non-competitive inhibition mode”. In the data set on N. europaea [2] (setting [4]), the “Vmax(app)” value is given as 52.7 ± 2.0 μmol (mg protein min)^−1 and the Km (as a rule, the substrate concentration at which the rate is half of its maximum) came to 30.2 ± 0.3 µM. For the same compound, in the data set on N. europaea [2] (setting [5]), the “Vmax(app)” value is listed as 39.2 ± 2.0 μmol (mg protein min)^−1 and the Km came out at 23.7 ± 4 µM. In the data set on N. europaea [3], the “% Dead” value was determined as 25 ± 8% and the “% Live” value was found to be 75 ± 8%.
